Assay results from patent US20080306115A1, “Midazole-4-Carboxamide Derivatives For Use As Cb1 Modulators” (priority 2005, published 2008).

Target: T1, CB1 receptor (Homo sapiens, UniProt P21554)
T1 construct: expressed in transfected cells
Experiment: [35S]-GTPγS binding assay on membranes from cells stably transfected with the CB1 gene, antagonism of CP55940
Assay type: biochemical
Conditions: half maximal inhibition of GTPγS binding, EC80 concentration of agonist CP55940, 30° C., 45 min
Description: 10 μg of membranes prepared from cells stably transfected with the CB1 gene were suspended in […] of 100 mM NaCl, 5 mM MgCl2, 1 mM EDTA, 50 mM HEPES (pH 7.4), 1 mM DTT, 0.1% BSA and 100 μM GDP. To this was added an EC80 concentration of agonist (CP55940), the required concentration of test compound and 0.1 μCi [^35S]-GTPγS. The reaction was allowed to proceed at 30° C. for 45 min. Samples were then transferred on to GF/B filters using a cell harvester and washed with wash buffer (50 mM Tris (pH 7.4), 5 mM MgCl2, 50 mM NaCl). Filters were then covered with scintilant and counted for the amount of [^35S]-GTPγS retained by the filter.
Activity is measured in the absence of all ligands (minimum activity) or in the presence of an EC80 concentration of CP55940 (maximum activity). These activities are set as 0% and 100% activity respectively. At various concentrations of novel ligand, activity is calculated as a percentage of the maximum activity and plotted. The data are fitted using the equation y=A+((B−A)/1+((C/x) ÙD)) and the IC50 value determined as the concentration required to give half maximal inhibition of GTPγS binding under the conditions used.

T1 sequence (P21554 whole entry): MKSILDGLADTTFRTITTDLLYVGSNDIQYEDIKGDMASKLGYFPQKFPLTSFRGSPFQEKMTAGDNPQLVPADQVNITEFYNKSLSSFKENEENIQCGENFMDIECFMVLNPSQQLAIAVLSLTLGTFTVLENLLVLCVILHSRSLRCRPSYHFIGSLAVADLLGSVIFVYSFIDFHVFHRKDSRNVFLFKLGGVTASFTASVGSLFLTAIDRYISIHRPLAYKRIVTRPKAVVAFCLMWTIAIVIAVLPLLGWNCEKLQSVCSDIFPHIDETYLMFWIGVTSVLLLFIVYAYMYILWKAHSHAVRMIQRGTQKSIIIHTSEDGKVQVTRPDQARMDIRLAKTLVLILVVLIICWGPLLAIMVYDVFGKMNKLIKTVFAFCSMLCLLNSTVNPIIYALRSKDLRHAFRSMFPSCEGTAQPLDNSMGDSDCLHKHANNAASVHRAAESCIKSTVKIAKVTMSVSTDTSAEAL

IC50: 1.2 nM
SMILES: Cc1c(C(=O)Nc2ccc(F)nc2)nc(-c2ccc(Cl)cc2Cl)n1-c1ccc(OS(=O)(=O)CCC(F)(F)F)cc1 [Example 3, 4-(2-(2,4-dichlorophenyl)-4-{[(6-fluoropyridin-3-yl)amino]carbonyl}-5-methyl-1H-imidazol-1-yl)phenyl 3,3,3-trifluoropropane-1-sulfonate]
